{"source": "patent US20080226719A1", "about": "“Combination of Rosiglitazone and Donepezil for Improvement of Cognitive Function” (priority 2005, published 2008)", "origin": "cited, not measured here", "test_system": "patients with AD", "details": "cited from earlier work", "data": [{"smiles": "Nc1c2c(nc3ccccc13)CCCC2", "note": "[tacrine]", "values": [{"measurement": "patients unchanged or worse", "setting": "APOE4 carriers with AD, after 30 weeks", "value": 60, "unit": "%"}, {"measurement": "patients showing an improvement in cognitive function", "setting": "non-APOE4 carriers with AD", "value": 83, "unit": "%"}]}]}
